According to patent publication US10314841B2, “Substituted pyrazoles as IRAK inhibitors” (Merck Patent GmbH, priority 2014, dated 2019):
Where two headings read alike, the source gives them in different places.

How the values were obtained:
[1] = target: T1, IRAK1 (His-TEV-IRAK1 (194-712)) (Homo sapiens, UniProt P51617); test: IRAK1 enzymatic assay; type: biochemical; settings: human recombinant His-TEV-IRAK1, ATP 1 μM, 3 hours at 30° C., FlashPlate
T1 construct: His-TEV-IRAK1 (194-712); His (N); TEV cleavage site (N)
T1 sequence (P51617 194-712): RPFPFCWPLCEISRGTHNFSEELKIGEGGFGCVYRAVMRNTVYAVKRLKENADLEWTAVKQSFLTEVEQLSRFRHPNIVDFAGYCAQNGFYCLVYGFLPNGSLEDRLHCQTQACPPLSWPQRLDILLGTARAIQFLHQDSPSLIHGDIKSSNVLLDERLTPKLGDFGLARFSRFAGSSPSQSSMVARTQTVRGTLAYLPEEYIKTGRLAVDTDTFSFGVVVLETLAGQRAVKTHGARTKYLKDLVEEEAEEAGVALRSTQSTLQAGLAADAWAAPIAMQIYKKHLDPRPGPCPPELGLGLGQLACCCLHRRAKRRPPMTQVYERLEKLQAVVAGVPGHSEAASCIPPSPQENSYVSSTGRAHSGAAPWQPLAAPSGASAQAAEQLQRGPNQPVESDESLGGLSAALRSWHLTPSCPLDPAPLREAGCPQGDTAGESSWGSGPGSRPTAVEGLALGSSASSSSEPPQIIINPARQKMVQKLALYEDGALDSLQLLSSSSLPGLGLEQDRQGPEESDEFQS
Procedure: IRAK1 Enzymatic Assay IRAK1 is a human purified recombinant enzyme (His-TEV-IRAK1 (194-712)). In this assay, IRAK-1 hydrolyses ATP and autophosphorylates. Measurement of IRAK-1 inhibition was performed in streptavidin coated 384 well FlashPlate (PerkinElmer #SM[…]). His-TEV-IRAK-1 (15 ng/well), ATP (1 μ[…]]ATP 0.25 μCi/well) and compounds in DMSO (range of concentrations from 20 μM to 1 nM) or controls (2% DMSO) were incubated for 3 hours at 30° C. in assay buffer: Hepes pH7.0 50 mM, Fatty acid-free BSA 0.1%, Dithiothreitol DTT 2 mM, MgCl2 10 mM, EGTA 0.5 mM, Triton-X-100 0.01%. Kinase reaction was stopped by addition of EDTA. Supernatant was discarded, plates were washed three times with 150 mM NaCl and radioactivity was then measured in a Microbeta Trilux reader.

[2] = target: T2, IRAK4 (His-TEV-IRAK4) (Homo sapiens, UniProt Q9NWZ3); test: IRAK4 enzymatic assay; type: biochemical; settings: human recombinant His-TEV-IRAK4, ATP 2 μM, STK1-biotin peptide 300 nM, 3 hours at 30° C., FlashPlate
T2 construct: His (N); TEV cleavage site (N)
T2 sequence (Q9NWZ3 1-460): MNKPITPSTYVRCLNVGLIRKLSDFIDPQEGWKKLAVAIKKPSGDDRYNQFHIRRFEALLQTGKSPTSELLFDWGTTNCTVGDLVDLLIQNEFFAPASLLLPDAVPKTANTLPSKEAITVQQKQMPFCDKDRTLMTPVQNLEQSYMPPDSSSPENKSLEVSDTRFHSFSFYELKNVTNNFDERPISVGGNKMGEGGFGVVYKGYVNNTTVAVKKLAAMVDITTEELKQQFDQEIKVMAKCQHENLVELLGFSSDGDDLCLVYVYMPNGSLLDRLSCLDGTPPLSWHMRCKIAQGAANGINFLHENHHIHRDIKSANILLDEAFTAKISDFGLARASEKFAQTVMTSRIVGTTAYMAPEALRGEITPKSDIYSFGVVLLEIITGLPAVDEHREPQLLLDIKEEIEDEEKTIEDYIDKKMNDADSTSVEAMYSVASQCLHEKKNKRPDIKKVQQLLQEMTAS
Procedure: IRAK4 Enzymatic Assay IRAK4 is a human purified recombinant enzyme (His-TEV-[…] (194-712). IRAK4 hydrolyses ATP, autophosphorylates and phosphorylates a Serine/Threonine generic peptidic substrate (STK: 61 ST1BLC from CisBio International based in Bagnols/Cèze FR). Measurement of IRAK-4 inhibition was performed in streptavidin coated 384 well FlashPlate (PerkinElmer #SM[…]). His-TEV-IRAK4 (20 ng/well), ATP (2 μM, [^33P]ATP 0.25 μCi/well), STK1-biotin peptide (300 nM) and compounds in DMSO (range of concentrations from 20 μM to 1 nM) or controls (2% DMSO) were incubated for 3 hours at 30° C. in assay buffer: Hepes pH7.0 50 mM, Fatty acid-free BSA 0.1%, Dithiothreitol DTT 2 mM, MgCl2 10 mM, EGTA 0.5 mM, Tween-20 0.01%, MnCl2 5 mM. Kinase reaction was stopped by addition of EDTA. Supernatant was discarded, plates were washed three times with 150 mM NaCl and radioactivity was then measured in a Microbeta Trilux reader.

[3] = system: TLR7 induced IL-6 secretion in human PBMC's; test: TLR7 induced IL-6 in human PBMC's; type: cell-based; settings: read-out: TLR7 induced IL-6 secretion in hPBMC's (IC50)
Procedure: TLR7 Induced IL-6 in Human PBMC's Human PBMC assay was used as one of the functional assays to monitor the activity of IRAK1 and IRAK4 small molecule inhibitors on TLR7 induced IL-6 secretion in human mononuclear cells (PBMC's). Human PBMCs were prepared from buffy coats (whole blood enriched with leukocytes and platelets) obtained from healthy volunteers used either fresh or frozen are plated in assay media (RPMI+2% P/S/L-glu+10% HI-FBS) and pre-treated with compounds in DMSO/media (range of concentrations from 25 uM to 0.4 nM) or controls (0.25% DMSO) for 30 minutes at 37° C. in assay media. Following pre-treatment with IRAK1 and IRAK4 inhibitors, PBMC's were stimulated with TLR7 specific ligand (2 uM) overnight (16-18 hrs) at 37° C. After incubation supernatant was transferred to 384 well PE AlphaPlate-384 (6005350) and IL-6 is quantified using Perkin Elmer IL-6 Alpha LISA kit (A[…]). Plates were read on an Envision® plate reader with Alpha Technology®.

[4] = human PBMC, TLR7 specific ligand 2 uM overnight, IL-6 Alpha LISA

IC50 [1] [nM] | IC50 [2] [nM] | Structure (SMILES) | IC50 [3, 4] [nM] | IC50 ([3]; Homo sapiens, PBMC) [nM]
100 to 1000 | 100 to 1000 | Cn1cc(-c2cccc(-c3ncc(-c4cnn(C5CCNCC5CO)c4)cn3)c2)cn1 (mixture of isomers) [Compound 26, [4-(4-{2-[3-(1-Methyl-1H-pyrazol-4-yl)-phenyl]-pyrimidin-5-yl}-pyrazol-1-yl)-piperidin-3-yl]-methanol] | 1000 to 20000 | –
< 100 | < 100 | C=CS(=O)(=O)N[C@@H]1CCC[C@H](n2cc(-c3cnc(-c4cccc(-c5cnn(C)c5)c4)nc3)cn2)C1 (racemic) [Compound 33] | 100 to 1000 | –
100 to 1000 | < 100 | Cn1cc(-c2cccc(-c3ncc(-c4cnn([C@H]5CCC[C@H](NCCO)C5)c4)cn3)c2)cn1 (relative stereo) [Compound 2, 2-[Trans-3-(4-{2-[3-(1-Methyl-1H-pyrazol-4-yl)-phenyl]-pyrimidin-5-yl}-pyrazol-1-yl)-cyclohexylamino]-ethanol] | 1000 to 20000 | –
100 to 1000 | < 100 | Cn1cc(-c2cccc(-c3ncc(-c4cnn([C@H]5CCC[C@H](N6CCOCC6=O)C5)c4)cn3)c2)cn1 (relative stereo) [Compound 3, 4-[Trans-3-(4-{2-[3-(1-Methyl-1H-pyrazol-4-yl)-phenyl]-pyrimidin-5-yl}-pyrazol-1-yl)-cyclohexyl]-morpholin-3-one] | 100 to 1000 | –
100 to 1000 | < 100 | Cn1cc(-c2cccc(-c3ncc(-c4cnn([C@H]5CCC[C@@H](N6CCOCC6)C5)c4)cn3)c2)cn1 (relative stereo) [Compound 4, 4-[Cis-3-(4-{2-[3-(1-Methyl-1H-pyrazol-4-yl)-phenyl]-pyrimidin-5-yl}-pyrazol-1-yl)-cyclohexyl]-morpholine] | 100 to 1000 | –
100 to 1000 | < 100 | Cn1cc(-c2cccc(-c3ncc(-c4cnn([C@H]5CCC[C@H](S(C)(=N)=O)C5)c4)cn3)c2)cn1 (relative stereo) [Compound 35] | 1000 to 20000 | –
< 100 | < 100 | C=CC(=O)N[C@@H]1CCC[C@H](n2cc(-c3cnc(-c4cccc(-c5cnn(C)c5)c4)nc3)cn2)C1 (relative stereo) [Compound 36] | 100 to 1000 | –
< 100 | < 100 | C=CS(=O)(=O)N[C@H]1CCC[C@H](n2cc(-c3cnc(-c4cccc(-c5cnn(C)c5)c4)nc3)cn2)C1 (relative stereo) [Compound 37, Ethenesulfonic acid [Trans-3-(4-{2-[3-(1-methyl-1H-pyrazol-4-yl)-phenyl]-pyrimidin-5-yl}-pyrazol-1-yl)-cyclohexyl]-amide] | 100 to 1000 | –
100 to 1000 | < 100 | Cn1cc(-c2cccc(-c3ncc(-c4cnn([C@@H]5CCC[C@@H](NS(C)(=O)=O)C5)c4)cn3)c2)cn1 (single isomer, unassigned) [Compound 27] | 100 to 1000 | –
100 to 1000 | 100 to 1000 | Cn1cc(-c2cccc(-c3ncc(-c4cnn([C@H]5CCC[C@@H](NS(C)(=O)=O)C5)c4)cn3)c2)cn1 (single isomer, unassigned) [Compound 28] | 1000 to 20000 | –
< 100 | < 100 | Cn1cc(-c2cccc(-c3ncc(-c4cnn(C5CCCC(NC(=O)OC(C)(C)C)C5)c4)cn3)c2)cn1 (stereo not drawn) [Compound 9, [3-(4-{2-[3-(1-Methyl-1H-pyrazol-4-yl)-phenyl]-pyrimidin-5-yl}-pyrazol-1-yl)-cyclohexyl]-carbamic acid tert-butyl ester] | 1000 to 20000 | –
100 to 1000 | < 100 | C=CC(=O)N1CCC(n2cc(-c3cnc(-c4cccc(-c5cnn(C)c5)c4)nc3)cn2)CC1 [Compound 10, 1-[4-(4-{2-[3-(1-Methyl-1H-pyrazol-4-yl)-phenyl]-pyrimidin-5-yl}-pyrazol-1-yl)-piperidin-1-yl]-propenone] | 100 to 1000 | –
100 to 1000 | < 100 | Cn1cc(-c2cccc(-c3ncc(-c4cnn(C5CCCC(N6CCC(F)(F)CC6)C5)c4)cn3)c2)cn1 (stereo not drawn) [Compound 11, 5-{1-[3-(4,4-Difluoro-piperidin-1-yl)-cyclohexyl]-1H-pyrazol-4-yl}-2-[3-(1-methyl-1H-pyrazol-4-yl)-phenyl]-pyrimidine] | 100 to 1000 | –
< 100 | < 100 | Cn1cc(-c2cccc(-c3ncc(-c4cnn(C5CCC[C@@H](NC6CCOC6)C5)c4)cn3)c2)cn1 (stereo partly drawn) [Compound 12, [3-Cis-(4-{2-[3-(1-Methyl-1H-pyrazol-4-yl)-phenyl]-pyrimidin-5-yl}-pyrazol-1-yl)-cyclohexyl]-(tetrahydro-furan-3-yl)-amine] | 100 to 1000 | –
100 to 1000 | < 100 | C=CC(=O)N1CCCC(n2cc(-c3cnc(-c4cccc(-c5cnn(C)c5)c4)nc3)cn2)C1 (stereo not drawn) [Compound 14, 1-[3-(4-{2-[3-(1-Methyl-1H-pyrazol-4-yl)-phenyl]-pyrimidin-5-yl}-pyrazol-1-yl)-piperidin-1-yl]-propenone] | 100 to 1000 | –
< 100 | < 100 | C=CC(=O)NC1CCCC(n2cc(-c3cnc(-c4cccc(-c5cnn(C)c5)c4)nc3)cn2)C1 (stereo not drawn) [Compound 15, N-[3-(4-{2-[3-(1-Methyl-1H-pyrazol-4-yl)-phenyl]-pyrimidin-5-yl}-pyrazol-1-yl)-cyclohexyl]-acrylamide] | < 100 | –
< 100 | < 100 | C=CS(=O)(=O)N1CCCC(n2cc(-c3cnc(-c4cccc(-c5cnn(C)c5)c4)nc3)cn2)C1 (stereo not drawn) [Compound 17, 5-[1-(1-Ethenesulfonyl-piperidin-3-yl)-1H-pyrazol-4-yl]-2-[3-(1-methyl-1H-pyrazol-4-yl)-phenyl]-pyrimidine] | < 100 | –
< 100 | < 100 | C=CS(=O)(=O)N1CCC(n2cc(-c3cnc(-c4cccc(-c5cnn(C)c5)c4)nc3)cn2)CC1 [Compound 18, 5-[1-(1-Ethenesulfonyl-piperidin-4-yl)-1H-pyrazol-4-yl]-2-[3-(1-methyl-1H-pyrazol-4-yl)-phenyl]-pyrimidine] | < 100 | –
100 to 1000 | < 100 | Cn1cc(-c2cccc(-c3ncc(-c4cnn(C5CCC[C@@H](S(C)(=N)=O)C5)c4)cn3)c2)cn1 (stereo partly drawn) [Compound 34, imino(methyl)(Cis-3-(4-(2-(3-(1-methyl-1H-pyrazol-4-yl)phenyl)pyrimidin-5-yl)-1H-pyrazol-1-yl)cyclohexyl)-I6-sulfanone] | 1000 to 20000 | –

Structure (SMILES) | IC50 [1] [nM] | IC50 [2] [nM] | IC50 [3, 4] [nM] | IC50 ([3]; Homo sapiens, PBMC) [nM]
Cn1cc(-c2cccc(-c3ncc(-c4cnn(C5CCCC(C(=O)O)C5)c4)cn3)c2)cn1 (mixture of isomers) [Compound 41, Lithium 3-(4-{2-[3-(1-Methyl-1H-pyrazol-4-yl)-phenyl]-pyrimidin-5-yl}-pyrazol-1-yl)-cyclohexanecarboxylate] | 1000 to 20000 | 100 to 1000 | – | 1000 to 20000
